Results reported in article PMC5030359, “Cathelicidin Antimicrobial Peptides with Reduced Activation of Toll-Like Receptor Signaling Have Potent Bactericidal Activity against Colistin-Resistant Bacteria” (mBio, 2016).
Where two headings read alike, the source gives them in different places. Ends that are not written are not given here. Peptide text beside a SMILES is read from it.

Tests used:
Serratia marcescens = conditions: strains with MIC of 16 µg/ml or less / strains tested
TLR4 = TLR4 signaling: IL-6 ELISA in BEAS-2B cells treated with LPS; format: cell-based, human; conditions: BEAS-2B cells, LPS 0.5 µg/ml, peptide 2 µM, ELISA, control cells = 100%; mean (SD) of minimum three assays
Description: (§1) FIG 1 Cathelicidins from animals have distinct abilities to act on Toll-like receptor signaling. (A) A phylogenetic relationship of cathelicidins from mammals. The figure is derived from results of Zanetti et al. (12). (B) Names, lengths, and sequences of cathelicidin peptides and their ability to affect Toll-like receptor signaling. The peptide lengths are shown in the numbers of amino acids (AAs). The residues predicted to form an α-helix are underlined with an arrow. The basic, acidic, and aromatic residues are colored blue, red, and green, respectively. TLR signaling was assessed by the amount of IL-6 cytokine produced in BEAS-2B cells. IL-6 levels were quantified using enzyme-linked immunosorbent assay (ELISA), and the level of IL-6 in the control cells is normalized to 100%. The peptides were added to the cells at a final concentration of 2 μM. Each result is the mean of a minimum of three independent assays, and the standard deviations (SD) are shown in parentheses.
LL-37 at 2 µM final concentration reduced IL-6 production to approximately half that of the untreated cells (Fig. 1B).
(§2) The concentration of IL-6 secreted into the cell medium was quantified using the OptEIA kit (BD Biosciences, San Jose, CA). A typical assay used 1 × 10^4 BEAS-2B cells/well grown for 24 h in flat-bottom 96-well plates. Poly(I⋅C) was added to a final concentration of 0.13 µg/ml for 24 h. ODN2006 was added to 0.5 nM. Lipopolysaccharides were used at 0.5 µg/ml. All data shown are the means and ranges of 1 standard error for a minimum of three independent samples. Data sets were compared using the Student t test calculated with GraphPad Prism 5 software.

Klebsiella pneumoniae = conditions: strains with MIC of 16 µg/ml or less / strains tested
Description: (§4) The bacterial species tested are Klebsiella pneumoniae (K. p.), Serratia marcescens (S. m.), Enterobacter cloacae (E. cl.), Escherichia coli (E. c.), and Pseudomonas aeruginosa (P. a.). MICs were determined by the microdilution assay. […] The results are the median values of at least three independent assays.
(§5) Antimicrobial activity was determined using the broth microdilution method based on the guidelines of the Clinical and Laboratory Standards Institute (CLSI) ([39]), using cation-adjusted Mueller-Hinton broth (CAMHB) as the testing medium. Reference Gram-positive and Gram-negative bacteria were tested, including both enteric and Pseudomonas aeruginosa strains. Each MIC was determined in at least three independent assays.

Enterobacter cloacae = conditions: strains with MIC of 16 µg/ml or less / strains tested
Description: as §4, §5

TLR3 = TLR3 signaling: IL-6 ELISA in BEAS-2B cells treated with poly(I·C); format: cell-based, human; conditions: poly(I·C) […], peptide 2 µM, ELISA, control cells = 100%, mean (SD) of minimum three assays
Description: (§3) Eight cathelicidins produced by eight mammals were selected for an initial examination (Fig. 1A). […] However, the number of charged residues and the lengths of the disordered residues differed (Fig. 1B). The peptides were added to BEAS-2B cells, a human lung epithelial cell line that expresses multiple TLRs and can release proinflammatory cytokines in response to their activation and the enhancement of cytokine release by LL-37 ([15]). BEAS-2B cells treated with the TLR3 agonist poly(I⋅C) and 2 µM LL-37 increased interleukin 6 (IL-6) production by threefold. All of the nonhuman cathelicidins tested had lower TLR3 signaling compared to LL-37 (Fig. 1B). The lack of TLR3 signaling by the nonhuman cathelicidins was due to the inability to use the formyl peptide receptor-like receptor 1 to endocytose the double-stranded RNA (dsRNA)−LL-37 complex and deliver the poly(I⋅C) to TLR3 in endosomes ([17]) (see Fig. S1 in the supplemental material). All of the nonhuman cathelicidins also had reduced activation of TLR9 compared to LL-37 (Fig. 1B).
as §1, §2

TLR9 = TLR9 signaling: IL-6 ELISA in BEAS-2B cells treated with CpG DNA ODN2006; format: cell-based, human; conditions: ODN2006 0.5 nM, peptide 2 µM, control cells = 100%, mean (SD) of minimum three assays
Description: as §3, §1, §2

Description for Escherichia coli: as §4, §5
Description for Pseudomonas aeruginosa: as §4, §5

Row | Compound | # strains inhibited at 16 µg/ml peptide S. m. (Serratia marcescens) | % IL-6 produced compared to controls (SD) TLR4 (TLR4) | No. of strains inhibited at 16 µg/ml/total no. of strains (19 Gram-negative strains) | # strains inhibited at 16 µg/ml peptide K. p. (Klebsiella pneumoniae) | # strains inhibited at 16 µg/ml peptide E. cl. (Enterobacter cloacae) | # strains inhibited at 16 µg/ml peptide P. a. (Pseudomonas aeruginosa) | % IL-6 produced compared to controls (SD) TLR3 (TLR3) | % IL-6 produced compared to controls (SD) TLR9 (TLR9) | # strains inhibited at 16 µg/ml peptide E. c. (Escherichia coli) | No. of strains inhibited at 16 µg/ml/total no. of strains (19 Gram-negative strains; 19 Gram-negative strains, MIC of 16 µg/ml or less)
1 | CRAMP | 0/3 | 41(7) % | 2/19 | 0/4 | 1/2 | 0/4 | 57(10) % | 41(7) % | 1/6 | 
2 | CAP-18 | 0/3 | 42(13) % | 11/19 | 4/4 | 1/2 | 3/4 | 234(30) % | 121(23) % | 3/6 | 
3 | CC[C@H](C)[C@H](NC(=O)[C@H](CCCCN)NC(=O)[C@H](CCC(=O)O)NC(=O)[C@H](CCCCN)NC(=O)[C@@H](NC(=O)[C@H](CCCCN)NC(=O)[C@H](CCCNC(=N)N)NC(=O)[C@H](Cc1ccccc1)NC(=O)[C@H](Cc1ccccc1)NC(=O)[C@H](CC(N)=O)NC(=O)CNC(=O)[C@H](CC(C)C)NC(=O)[C@@H](N)CCCNC(=N)N)C(C)C)C(=O)NCC(=O)NCC(=O)NCC(=O)N[C@@H](CC(C)C)C(=O)N[C@@H](CCCCN)C(=O)N[C@@H](CCCCN)C(=O)N[C@H](C(=O)NCC(=O)N[C@@H](CCC(N)=O)C(=O)N[C@@H](CCCCN)C(=O)N[C@H](C(=O)N[C@@H](CCCCN)C(=O)N[C@@H](CC(=O)O)C(=O)N[C@@H](Cc1ccccc1)C(=O)N[C@@H](CC(C)C)C(=O)NCC(=O)N[C@@H](CC(N)=O)C(=O)N[C@@H](CC(C)C)C(=O)N[C@H](C(=O)N1CCC[C@H]1C(=O)N[C@@H](CCCNC(=N)N)C(=O)N[C@H](C(=O)N[C@@H](C)C(=O)N[C@@H](CO)C(=O)O)[C@@H](C)O)C(C)C)[C@@H](C)CC)C(C)C [RL-37] (H-RLGNFFRKVKEKIGGGLKKVGQKIKDFLGNLVPRTAS-OH; N-terminus and C-terminus assumed) | 0/3 | 50(5) % | 7/19 | 3/4 | 1/2 | 1/4 | 102(18) % | 93(19) % | 2/6 | 
4 | GLRKKFRKTRKRIQKLGRKIGKTGRKVWKAWREYGQIPYPCRI [CAP-11] | 1/3 | 9(4) % |  | 4/4 | 2/2 | 4/4 | 148(8) % | 79(10) % | 5/6 | 16
